Test results taken from the supplement of paper PMC11451515.

Assays:
Experiment in all cases: AUC of viability dose-response curve (% viability x log10 dose units); higher = less sensitive
Conditions in all cases: 48 h
NOMO1 = test system: NOMO1
In short: (§1)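 Leukemia cells adapted to each medium were seeded in 1536-well plates (500 or 1000 cells/well). They were dosed with library compounds in DMSO at 11 threefold doses, 47 μM to 0.79 nM, for 48 h at 37°C. CellTiter-Glo One luminescence was normalised per plate to DMSO and cell-free wells. Area under the curve was integrated by trapezoidal rule over log10 doses on a four-parameter log-logistic fit; curves exceeding full viability were scaled and curves failing quality control removed.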

P12-Ichikawa = test system: P12-Ichikawa
In short: as §1

SEM cells = test system: SEM cells
In short: as §1

[1] = RPMI 5 mM glucose + 10% dialyzed FBS

Row | SMILES | AUC of viability dose-response curve (NOMO1; HPLM + 10% dialyzed FBS) | AUC of viability dose-response curve (NOMO1; RPMI 5 mM glucose + 10% FBS) | AUC of viability dose-response curve (NOMO1; [1]) | AUC of viability dose-response curve (P12-Ichikawa; HPLM + 10% dialyzed FBS) | AUC of viability dose-response curve (P12-Ichikawa; RPMI 5 mM glucose + 10% FBS) | AUC of viability dose-response curve (P12-Ichikawa; [1]) | AUC of viability dose-response curve (SEM cells; HPLM + 10% dialyzed FBS) | AUC of viability dose-response curve (SEM cells; RPMI 5 mM glucose + 10% FBS) | AUC of viability dose-response curve (SEM cells; [1])
1 | O=C(/C=C/c1ccc(/C=C/C(=O)Nc2ccc(C3=NCCN3)cc2)cc1)Nc1ccc(C2=NCCN2)cc1 | 456 | 439 | 464 | 467 | 467 | 473 | 460 | 448 | 459
2 | O=C(O)CCCCCC(=O)NN=C1CCCC1 | 433 | 414 | 453 | 467 | 468 | 447 | 456 | 468 | 461
3 | C/C1=C2/[N]3[Co+]456([OH])<-[N]7=C1[C@@H](CCC(N)=O)C(C)(C)/C7=C/C1=[N]->4C(=C(/C)C4=[N]->5[C@@](C)([C@H]3[C@H](CC(N)=O)[C@@]2(C)CCC(=O)NC[C@@H](C)OP(=O)([O-])O[C@H]2[C@@H](O)[C@@H](n3c[n]->6c5cc(C)c(C)cc53)O[C@@H]2CO)[C@@](C)(CC(N)=O)[C@@H]4CCC(N)=O)/[C@@](C)(CC(N)=O)[C@@H]1CCC(N)=O | 434 | 426 | 443 | – | – | – | 433 | 414 | 460
4 | COc1ccc(F)c(F)c1C(=O)c1cnc(NC2CCN([S+](C)(=O)[O-])CC2)nc1N | 367 | 380 | 380 | 401 | 358 | 360 | 351 | 344 | 381
5 | C[C@H](NC(=O)Cc1cc(F)cc(F)c1)C(=O)N[C@H](C(=O)OC(C)(C)C)c1ccccc1 | 448 | 397 | 432 | 432 | 428 | 390 | 418 | 456 | 415
6 | C[S+](=O)([O-])Oc1ccc2c(NC(N)=O)c(C(=O)c3ccc(Cl)cc3Cl)oc2c1 | 449 | 460 | 462 | 455 | 463 | 466 | 433 | 442 | 464
7 | CN(CCOc1ccc(CC2SC(=O)NC2=O)cc1)c1ccccn1 (centres undefined) | 442 | 474 | 443 | 467 | 465 | 462 | 469 | 433 | 466
8 | C[C@@H]1CC[C@@]2(CC[C@]3(C)\C(=C/C[C@@H]4[C@@]5(C)CC[C@H](O)C(C)(C)[C@@H]5CC[C@@]34C)[C@@H]2[C@H]1C)C(O)=O | 477 | 461 | 468 | 462 | 469 | 458 | 465 | 467 | 456
9 | CC(=O)OC[C@@H]1O[C@H]([C@H](OC(C)=O)[C@@H]1OC(C)=O)N2\C=C/C(=O)NC2=O | 429 | 440 | 443 | 461 | 444 | 457 | 448 | 462 | 456
10 | C[C@]1(O)CC(C1)C2=NC(=C3[N]2C=CN=C3N)C4=CC5=C(C=C4)C=CC(=N5)C6=CC=CC=C6 (centres undefined) | 321 | 319 | 301 | 396 | 358 | 366 | – | – | –
11 | COC1=CC=C(C=C1)/C2=C(O)/C(=O)C3=C(O)C=C(O)C(=C3O2)CC=C(C)C | 464 | 454 | 464 | 467 | 473 | 468 | 457 | 434 | 467
12 | CC(C)c1onc(-c2c(Cl)cccc2Cl)c1COc1ccc(/C=C/c2cccc(C(=O)O)c2)c(Cl)c1 | 454 | 447 | 466 | 450 | 445 | 452 | 466 | 465 | 443
13 | CC(C)(N)c1ccc(-c2nc3ccccc3nc2-c2ccccc2)cc1 | 177 | 220 | 241 | 168 | 224 | 219 | 196 | 145 | 181
14 | C[C@]12CC[C@H]3[C@@H](CC(=C)\C4=C\C(=O)\C=C/[C@]34C)[C@@H]1CCC2=O | 463 | 429 | 444 | 466 | 466 | 461 | 426 | 438 | 437
15 | CC(=O)SC[C@@H](C)C(=O)N1CCC[C@H]1C(=O)N[C@@H](Cc1ccccc1)C(=O)O | 448 | 450 | 466 | 466 | 466 | 462 | 454 | 454 | 472
16 | Nc1nc(F)nc2c1ncn2[C@@H]1O[C@H](COP(=O)(O)O)[C@@H](O)[C@@H]1O | 420 | 456 | 448 | 448 | 460 | 454 | 353 | 398 | 352
17 | CN(C)c1nc(Cc2ccc(NC(=O)c3ccc(C(F)(F)F)cc3)cc2)nc(N(C)C)c1CC(=O)O | 452 | 432 | 451 | 471 | 465 | 461 | 473 | 445 | 470
18 | Cc1ccc(C(=O)Nc2cccc(C(F)(F)F)c2)cc1Nc1nc(-c2cccnc2)nc2c1cnn2C | 392 | 396 | 409 | 421 | 393 | 416 | 362 | 411 | 407
19 | CC(C)C1CCC(C(=O)N[C@H](Cc2ccccc2)C(=O)O)CC1 (some centres undefined) | 409 | 418 | 446 | 452 | 435 | 419 | 394 | 401 | 422
20 | C[C@]12CCC3c4ccc(O)cc4CCC3C1CCC2=O (some centres undefined) | 429 | 424 | 420 | 441 | 447 | 395 | – | – | –
21 | CC(C(C)N1CC(=O)NC(=O)C1)N1CC(=O)NC(=O)C1 (centres undefined) | 459 | 468 | 471 | 454 | 425 | 447 | 422 | 351 | 401
22 | NC(=O)c1cccc(-c2cc(Nc3ccc(OC(F)(F)F)cc3)ncn2)c1 | 457 | 436 | 428 | 469 | 466 | 460 | 441 | 464 | 423
23 | CCNC(=O)CCC/C=C\C[C@@H]1[C@@H](/C=C/C(O)CCc2ccccc2)[C@@H](O)C[C@@H]1O (some centres undefined) | 460 | 456 | 459 | 448 | 453 | 431 | 466 | 473 | 461

Row | SMILES | AUC of viability dose-response curve (NOMO1; HPLM + 10% dialyzed FBS) | AUC of viability dose-response curve (NOMO1; RPMI 5 mM glucose + 10% FBS) | AUC of viability dose-response curve (NOMO1; [1]) | AUC of viability dose-response curve (P12-Ichikawa; HPLM + 10% dialyzed FBS) | AUC of viability dose-response curve (P12-Ichikawa; RPMI 5 mM glucose + 10% FBS) | AUC of viability dose-response curve (P12-Ichikawa; [1]) | AUC of viability dose-response curve (SEM cells; HPLM + 10% dialyzed FBS) | AUC of viability dose-response curve (SEM cells; RPMI 5 mM glucose + 10% FBS) | AUC of viability dose-response curve (SEM cells; [1])
24 | O=C1NC(=O)/C(=C/c2ccc3nccnc3c2)S1 | 457 | 444 | 439 | 464 | 443 | 453 | 441 | 441 | 428
25 | CO[C@@H](C(=O)N1Cc2[nH]nc(NC(=O)c3ccc(N4CCN(C)CC4)cc3)c2C1)c1ccccc1 | 352 | 319 | 319 | 268 | 260 | 300 | 277 | 247 | 248
26 | CC1(C)SCCN([S+](=O)([O-])c2ccc(OCC#CCO)cc2)[C@H]1C(=O)NO | 462 | 437 | 450 | 456 | 454 | 438 | 449 | 413 | 439
27 | CN(C)C/C=C/C(=O)Nc1ccc(C(=O)Nc2cccc(Nc3ncc(Cl)c(-c4c[nH]c5ccccc45)n3)c2)cc1 | 248 | 248 | 235 | 240 | 234 | 247 | – | – | –
28 | CCCCCNC(=N)N/N=C/c1c[nH]c2ccc(OC)cc12 | 440 | 442 | 441 | 429 | 429 | 436 | 426 | 424 | 428
29 | NC(=O)c1cnccn1 | 464 | 471 | 457 | 463 | 465 | 461 | 462 | 461 | 465
30 | CCc1ccc(OCc2ccccc2C(=O)Nc2ccc3nc(C)cc(N)c3c2)cc1 | 368 | 409 | 407 | 409 | 423 | 426 | 377 | 416 | 417
31 | CCC(C)CCCCC(=O)N[C@@H](CCN)C(=O)NC(C(=O)N[C@H](CCN)C(=O)N[C@@H]1CCNC(=O)C([C@@H](C)O)NC(=O)[C@@H](CCN)NC(=O)[C@@H](CCN)NC(=O)[C@@H](CC(C)C)NC(=O)[C@H](Cc2ccccc2)NC(=O)[C@H](CCN)NC1=O)[C@@H](C)O (some centres undefined) | 457 | 451 | 470 | 461 | 457 | 445 | 429 | 471 | 434
32 | c1cc(-c2cnn3cc(-c4ccc(OCCN5CCCCC5)cc4)cnc23)ccn1 | 388 | 397 | 394 | 416 | 395 | 406 | – | – | –
33 | CCN(CC)CCNC(=O)c1c(C)[nH]c(/C=C2\C(=O)Nc3ccc(F)cc32)c1C | 257 | 265 | 271 | 248 | 266 | 257 | – | – | –
34 | CC/C=C\C[C@H]1C(=O)CC[C@@H]1CC(=O)OC | 470 | 440 | 449 | 460 | 451 | 470 | 469 | 451 | 461
35 | Oc1cc(-c2nc(-c3ccccc3)[nH]c2-c2ccncc2)ccc1Cl | 394 | 451 | 420 | 438 | 424 | 419 | 464 | 461 | 467
36 | O=C(c1cncc(Br)c1)N1CCC(N2CCCC2)CC1 | 438 | 450 | 450 | 463 | 463 | 459 | 469 | 464 | 463
37 | CNc1nc(-c2ccc3c(N)n[nH]c3c2)cc(N2C[C@@H](C(=O)NC3CCCCC3)CC[C@H]2C)n1 | 350 | 359 | 364 | 395 | 319 | 336 | – | – | –
38 | CCCOc1ccc(C(=O)OCCN(CC)CC)cc1N | 465 | 468 | 464 | 453 | 448 | 446 | – | – | –
39 | CN(C)CCCC1(c2ccc(F)cc2)OCc2cc(C#N)ccc21 (centres undefined) | 425 | 431 | 392 | 433 | 415 | 425 | 447 | 426 | 432
40 | CNC(=O)c1ccc2c(c1)NC(=O)/C2=C(\Nc1cccc(CN(C)C)c1)c1ccccc1 | 400 | 399 | 380 | – | – | – | 318 | 303 | 302
41 | N[S+](=O)([O-])c1ccc(Nc2nc(OCC3CCCCC3)c3[nH]cnc3n2)cc1 | 330 | 346 | 357 | – | – | – | 307 | 276 | 298
42 | CCNC(=O)Nc1ccc(Oc2ncnc(N)c2/C=N/OC)cc1Cl | 460 | 459 | 441 | 477 | 458 | 471 | – | – | –
43 | CCCCc1ccc2[nH]c(NC(=O)OC)nc2c1 | 304 | 273 | 293 | 252 | 261 | 289 | – | – | –
44 | CO[C@H]1/C=C/O[C@@]2(C)Oc3c(C)c(O)c4c(c3C2=O)C2=NC3(CCN(CC(C)C)CC3)NC2=C(NC(=O)/C(C)=C/C=C/[C@H](C)[C@H](O)[C@@H](C)[C@@H](O)[C@@H](C)[C@H](OC(C)=O)[C@@H]1C)C4=O | 471 | 476 | 466 | 469 | 466 | 471 | – | – | –
45 | COc1cc(C(=O)NC2CCN(C)CC2)ccc1Nc1ncc2c(n1)N(C1CCCC1)CCC(=O)N2C(C)C | 432 | 442 | 457 | 406 | 410 | 411 | – | – | –
46 | OC(=O)\C1=C\N(C2CC2)C3=CC(=C(F)C=C3C1=O)N4CCNCC4 | 404 | 428 | 422 | 451 | 456 | 455 | – | – | –
